# Where two headings read alike, the source gives them in different places. Marks after values point to notes of the source that are not given here.
# Experiments:
# advanced solid tumors = assay: Antitumor activity by RECIST; assay type: in vivo, human
# [1] = Plasma pharmacokinetics, noncompartmental analysis; assay type: in vivo, human; settings: for clearance: total body clearance
# [2] = tested on: patients with advanced or metastatic solid tumors; settings: in vivo
# HER2 = settings: read-out: half-maximal inhibitory concentration (IC50); cited from earlier work
# HER4 = settings: read-out: half-maximal inhibitory concentration (IC50); cited from earlier work
# [3] = tested on: patients with advanced solid tumors; settings: cited from earlier work
# [4] = tested on: patients with advanced or metastatic solid tumors
# [5] = 20 mg q.d. oral, Day 27 steady state, n = 3
# [6] = 60 mg q.d. oral, Day 27 steady state, individual value from one patient
structure (smiles),measurement,setting,value
CN(C)C/C=C/C(=O)Nc1cc2c(Nc3ccc(F)c(Cl)c3)ncnc2cc1O[C@H]1CCOC1 [afatinib],patients with stable disease,advanced solid tumors; 40 mg dose cohort,Five
same,objective responses,"advanced solid tumors; 29 evaluable patients, RECIST",No objective responses
same,patients remaining on treatment for more than 16 weeks,"advanced solid tumors; one in 20 mg/d group, two in 40 mg/d group",Three
same,duration of stable disease,"advanced solid tumors; one ovarian cancer patient, 20 mg group",204 days
same,"Cpre,ss gMean","[1]; 10 mg q.d. oral, Day 27 steady state, N = 2",2.64^b ng/mL
same,"CL/F,ss gMean","[1]; 10 mg q.d. oral, Day 27 steady state, n = 3",2980 mL/min
same,"CL/F,ss gMean",[1]; [5],755 mL/min
same,"Cpre,ss gMean",[1]; [5],12.5 ng/mL
same,"Cpre,ss gMean","[1]; 40 mg q.d. oral, Day 27 steady state, N = 16",16.1^c ng/mL
same,"CL/F,ss",[1]; [6],567 mL/min
same,"Cpre,ss",[1]; [6],52.3 ng/mL
same,dose-proportionality,"[1]; 10-60 mg, steady state",no obvious deviation from dose-proportionality
same,steady-state reached,"[1]; Treatment Period 1, once-daily oral",≤ 8 days
same,half-life,"[1]; human, plasma, oral",37.4 h
same,Vd,"[1]; human, plasma, oral, apparent volume of distribution during the terminal phase, overall gMean, all groups (data not shown)",3630 L
same,clearance,"[1]; human, plasma, oral, gMean, range across dose groups",567 to 2980 mL/min
same,clearance,"[1]; human, plasma, oral, overall gMean, across all groups (data not shown)",1330 mL/min
same,half-life,"[1]; human, plasma, po",34 to 48 h
same,Patients discontinued owing to DLT,[2]; human,"2 (6.7) n, %"
same,Patients discontinued owing to Other AEs,[2]; human,"3 (10.0) n, %"
same,"dermatitis acneiform, treatment-related AE, patients",[2]; human,33.3%
same,"diarrhea, treatment-related AE, patients",[2]; human,76.7%
same,"fatigue, treatment-related AE, patients",[2]; human,33.3%
same,"mucosal inflammation, treatment-related AE, patients",[2]; human,43.3%
same,"onset of diarrhea during the first treatment course, patients",[2]; human,70%
same,patients with AEs considered related to study medication,[2]; human,29
same,patients with at least one AE,[2]; human,30
same,Patients with DLT events during the initial 28-day treatment period,"[2]; human, 28 days",3 n
same,cardiac events,[2],No cardiac events were reported
same,"patients with DLT, in total",[2],three patients
same,IC50,HER2,14 nM
same,IC50,HER4,1 nM
same,dose that could be safely administered,[3]; 2-week on/2-week off schedule,70 mg/day
same,dose administered with tolerable side effects,[3]; 3-week on/1-week off schedule,40 mg/day
same,maximum tolerated dose (MTD),[3]; 3-week on/1-week off schedule,55 mg/day
same,recommended Phase II dose (RP2D),"[3]; once-daily, 2-week on/off schedule",70 mg
same,Patients discontinued owing to Disease progression,[4]; 10 mg/day,"4 (80) n, %"
same,Patients discontinued owing to Disease progression,[4]; 20 mg/day,"3 (100) n, %"
same,Patients discontinued owing to Disease progression,[4]; 40 mg/day,"14 (73.7) n, %"
same,Patients discontinued owing to Disease progression,[4]; 60 mg/day,"1 (33.3) n, %"
same,Patients discontinued owing to Disease progression,[4]; Total,"22 (73.3) n, %"
same,MTD,"[4]; continuous once-daily oral, 28-day cycles",40 mg/day
